# Test results reported in patent US4467104A, “Esters of 2-(2-chlorocarbonyl)-2-(2,3-dihydro-2-alkylbenzofuran-7-yl)-hydrazinecar boxylic acid” (Shell Oil Company, priority 1982, dated 1984).
# Key:
# Format in all cases: in vivo
# [1] = test system: Pea aphids (Acyrthosiphon pisum (Harris)); test: Pea aphid test on sprayed broad bean plants (living aphids counted at 18 to 20 hours); details: concentration by weight in the formulation
# Method: II. Pea aphids (Acyrthosiphon pisum (Harris)) were tested by placing about 100 aphids on broad bean plants. The plants were sprayed with dilutions of an acetone solution of the test compound in water containing an emulsifier and held in containers under laboratory conditions for 18 to 20 hours, at which time the living aphids in the containers were counted. The tests were conducted employing several different dosage rates for each test compound.
# (§1) In the case of each species of insect, the concentration of the test compound by weight in the formulation required to kill fifty percent of the test insects--i.e., the LC50 dosage--was determined.
# [2] = test system: Mosquito larvae (Anopheles albimanus (Weide)); test: Mosquito larvae test in water (mortality after 18-22 hours); details: in distilled water
# Method: IV. Mosquito larvae (Anopheles albimanus (Weide)) were tested by placing 10 living and active mosquito larvae in a jar containing a 0.1 ml aliquot of a 1% acetone solution of the test compound thoroughly mixed with 100 ml of distilled water. After 18-22 hours, mortality counts were taken. Both dead and moribund larvae were counted as dead. […] The tests were conducted employing several different dosage rates for each compound.
# as §1
# [3] = test system: Corn earworm larvae (Heliothis zea (Boddie)); test: Corn earworm larvae test on sprayed broad bean plant (44-46 hours); details: concentration by weight in the formulation
# Method: V. Corn earworm larvae (Heliothis zea (Boddie)) were tested by spraying a broad bean plant with dilutions of an acetone solution of the test compound in water containing an emulsifier. Immediately after spraying, 5 larvae were transferred to the plant and held for 44-46 hours, at which time the dead and moribund larvae were counted. The tests were conducted employing several different dosage rates for each test compound.
# as §1
# [4] = test system: Houseflies (Musca domestica (Linne)); test: Housefly spray test (mortality after 18-20 hours); details: concentration by weight in the formulation
# Method: I. Houseflies (Musca domestica (Linne)) were tested by placing 50 4- to 5-day old housflies into a spray cage and spraying with 0.6 ml of a solution of test compound. After spraying, the flies were anesthetized with CO2 and transferred to a recovery cage containing a milk pad for food. The cages were held for 18-20 hours after which mortality counts were made. Both dead and moribund flies were counted. The tests were conducted employing several different dosage rates for each test compound.
# as §1
# [5] = test system: Adult female two-spotted mites (Tetranychus urticae (Koch)); test: Two-spotted spider mite test on sprayed pinto bean leaves (about 20 hours); details: concentration by weight in the formulation
# Method: III. Adult female two-spotted mites (Tetranychus urticae (Koch) was tested by placing 50-75 mites on the bottom side of leaves of pinto bean plants. The leaves were sprayed with dilutions of an acetone solution of the test compound in water containing an emulsifier and kept under laboratory conditions for about 20 hours, at which time mortality counts were made. The tests were conducted employing several different dosage rates for each test compound.
# as §1
compound,measurement,setting,value
"COC(=O)NN(C(=O)Cl)c1cccc2c1OC(C)C2 (centres unmarked) [Compound 5, 2-(2-chlorocarbony)-2-(2,3-dihydro-2-methylbenzofuran-7-yl)-hydrazinecarboxylic acid methyl ester]",LC50 Pea Aphid,[1],0.0005 % w
same,LC50 Mosquito Larvae,[2],0.039 ppm
same,LC50 Corn Earworm,[3],0.057 % w
same,LC50 Housefly,[4],> 0.5 % w
same,LC50 Spider mite,[5],> 0.2 % w
"COC(=O)NN(C(=O)Cl)c1ccc(C)c2c1OC(C)(C)C2 [Compound 4, 2-(2-chlorocarbonyl)-2-(2,3-dihydro-2,2,4-trimethylbenzofuran-7-yl)hydrazinecarboxylic acid methyl ester]",LC50 Pea Aphid,[1],0.0002 % w
same,LC50 Mosquito Larvae,[2],0.02 ppm
same,LC50 Corn Earworm,[3],0.033 % w
same,LC50 Housefly,[4],> 0.5 % w
same,LC50 Spider mite,[5],> 0.2 % w
"COC(=O)NN(C(=O)Cl)c1cccc2c1OC(C)(C)C2 [Compound 1, 2-(2-chlorocarbonyl)-2-(2,3-dihydro-2,2-dimethylbenzofuran-7-yl)hydrazinecarboxlic acid methyl ester]",LC50 Pea Aphid,[1],0.00008 % w
same,LC50 Mosquito Larvae,[2],0.016 ppm
same,LC50 Corn Earworm,[3],0.043 % w
same,LC50 Housefly,[4],> 0.5 % w
same,LC50 Spider mite,[5],> 0.02 % w
"CCOC(=O)NN(C(=O)Cl)c1cccc2c1OC(C)(C)C2 [Compound 2, 2-(2-chlorocarbonyl)-2-(2,3-dihydro-2,2-dimethyl-benzofuran-7-yl)hydrazinecarboxylic acid ethyl ester]",LC50 Pea Aphid,[1],0.0003 % w
same,LC50 Mosquito Larvae,[2],> 0.1 ppm
same,LC50 Corn Earworm,[3],0.1 % w
same,LC50 Housefly,[4],> 0.5 % w
same,LC50 Spider mite,[5],> 0.2 % w
